Among the data in patent publication US20260297065A1, “AROMATIC SUBSTITUENT-CONTAINING (HETERO) ARYL-IMIDAZOLE COMPOUND, AND PREPARATION METHOD THEREFOR AND USE THEREOF” (OPEN SOURCE THERAPEUTICS, priority 2022, published 2026) are IC50 values, retold here.

This test concerns the target T1, soluble epoxide hydrolase (sEH) (Homo sapiens, UniProt P34913).
T1 sequence (P34913 1-555): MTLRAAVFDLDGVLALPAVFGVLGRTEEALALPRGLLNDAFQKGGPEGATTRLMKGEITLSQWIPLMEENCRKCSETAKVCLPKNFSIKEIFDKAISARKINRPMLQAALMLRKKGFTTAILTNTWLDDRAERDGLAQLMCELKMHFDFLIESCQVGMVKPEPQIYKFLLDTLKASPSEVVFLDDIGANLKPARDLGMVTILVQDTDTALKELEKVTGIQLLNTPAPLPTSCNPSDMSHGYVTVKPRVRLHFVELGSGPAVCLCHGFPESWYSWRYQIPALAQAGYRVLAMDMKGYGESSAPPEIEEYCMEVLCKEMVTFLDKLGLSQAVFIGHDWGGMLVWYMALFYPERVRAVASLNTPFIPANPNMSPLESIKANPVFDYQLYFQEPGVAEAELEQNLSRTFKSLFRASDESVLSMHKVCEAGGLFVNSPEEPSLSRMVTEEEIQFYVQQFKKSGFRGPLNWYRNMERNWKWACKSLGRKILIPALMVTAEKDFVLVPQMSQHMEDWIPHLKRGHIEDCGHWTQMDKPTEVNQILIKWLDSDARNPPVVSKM
Put plainly: in vitro biochemical activity test, sEH enzyme inhibition with EET substrate (LC-MS). To be noted: 90 min pre-incubation at room temperature, 60 min reaction. How it is done: This example relates to the relationship between the structure and activity of (hetero)aryl imidazole compounds containing an aromatic substituent. Specifically, the biochemical activity of the (hetero)aryl imidazole compounds containing an aromatic substituent described in Example 1 as sEH enzyme inhibitors was evaluated by in vitro activity test experiments.
The experimental procedures for evaluating in vitro biochemical activity were described below.
The substrate used in the evaluation experiment was epoxyeicosatrienoic acid (EET). The solutions used in the evaluation experiments were Bis/Tris HCl 25 mM pH 7.0, Bis/Tris HCl 25 mM pH 7.0 containing 0.1 mg/mL BSA was used as buffer A, and Bis/Tris HCl 25 mM pH 7.0 containing 36.3 mM ZnSO4 was used as buffer B.
The specific steps of the evaluation experiment were as follows. 79 μL of buffer A was added to each well in a black 96-well plate and then 1 μL solution of the aromatic substituent-containing (hetero)aryl imidazole compound was added. Then, 10 μL sEH (1 μM) buffer A solution was added to the wells. After pre-incubation at room temperature for 90 min, 10 μL EET (10 μM) buffer A solution was added to trigger the reaction. After the mixture was allowed to react […] for 60 min, 15 μL buffer B and 180 μL acetonitrile were added to quench the reaction, followed by high-speed centrifugation and filtration for later use.
LC-MS was used to detect the concentration of EET in the samples. The final IC50 was calculated based on three independent experiments using Graphpad Prism software.

Molecules are shown by their SMILES.

For orientation: IC50 means the concentration needed to halve the response being measured. Higher therefore signals lower potency. In the case of `Cc1ncc(-c2cc3nc(-c4ccc(S(=O)(=O)N(C)C)cc4)[nH]c3cc2Cl)c(Cl)n1` [Compound 30, 4-(5-chloro-6-(4-chloro-2-methylpyrimid-5-yl)-1H-benzo [d]imidazol-2-yl)-N,N-dimeth-ylbenzenesulfonamide], the IC50 came out at 0.1 nM.

Consider `Cc1nn(C(F)F)cc1-c1cc2[nH]c(-c3ccc(C(F)(F)F)cc3)nc2c(F)c1F` [Compound 76, 2-(4-(trifluoromethyl)phenyl)-6-(3-methyl-1-(difluorometh-yl)-1H-pyrazol-4-yl)-4,5-difluoro-1H-benzo[d]imidazole], for which 0.081 nM corresponded to half-maximal inhibition (IC50).

In turn, `Cc1nc(N)ncc1-c1cc2nc(-c3ccc(S(=O)(=O)N(C)C)cc3)[nH]c2c(F)c1F` [Compound 27, 4-(6-(2-amino-4-methylpyr-imid-5-yl)-4,5-difluoro-1H-benzo[d]imidazol-2-yl)-N,N-dimethylbenzenesulfonamide] showed an IC50 of 0.056 nM.

For `Cc1ccc(-c2cc3nc(-c4ccc(C(=O)N5CCC[C@@H](C(N)=O)C5)cc4)[nH]c3cc2F)c(Cl)n1` [Compound 3, (R)-1-(4-(6-(2-chloro-6-meth-ylpyridin-3-yl)-5-fluoro-1H-benzo[d]imidazol-2-yl)benzo-yl)piperidine-3-carboxamide], the IC50 was found to be 7.6 nM.

In the case of `Cc1ncc(-c2cc3nc(-c4ccc(S(=O)(=O)N(C)C)cc4)[nH]c3cc2F)c(C)n1` [Compound 29, 4-(6-(2,4-dimethylpyrimid-5-yl)-5-fluoro-1H-benzo[d]imidazol-2-yl)-N,N-dimethyl-benzenesulfonamide], half-maximal inhibition (IC50) required 0.083 nM.

Regarding `Nc1ncc(-c2cc3[nH]c(-c4ccc(C(F)(F)F)cc4)nc3c(F)c2F)c(C(F)F)n1` [Compound 68, 5-(2-(4-(trifluoromethyl)phen-yl)-4,5-difluoro-1H-benzo[d]-imidazol-6-yl)-4-(difluoro-methyl)pyrimidine-2-amine], half-maximal inhibition (IC50) required 0.089 nM.

In turn, `Cc1cnccc1-c1cc2nc(-c3ccc(C(F)F)cc3)[nH]c2cc1F` [Compound 11, 2-(4-(difluoromethyl)phenyl)-5-fluoro-6-(3-methylpyridin-4-yl)-1H-benzo[d]imidazole] yielded an IC50 of 0.14 nM.

Turning to `Cc1ccc(-c2cc3nc(-c4ccc(C(F)(F)F)cc4)[nH]c3cc2F)cn1` [Compound 15, 5-fluoro-6-(6-methylpyridin-3-yl)-2-(4-(trifluoromethyl)-phenyl)-1H-benzo[d]imidazole], the IC50 amounted to 0.62 nM.

`Fc1cc2[nH]c(-c3ccc(C(F)(F)F)cc3)nc2cc1-c1cnc(N2CCOCC2)nc1` [Compound 16, 4-(5-(5-fluoro-2-(4-(trifluoro-methyl)phenyl)-1H-benzo[d]imidazol-6-yl)pyrimidine-2-yl)morpholine] came in with an IC50 of 0.14 nM.

The compound `CN(C)S(=O)(=O)c1ccc(-c2nc3cc(-c4cncnc4C(F)(F)F)c(F)cc3[nH]2)cc1` [Compound 33, 4-(5-fluoro-6-(4-(trifluoro-methyl)pyrimid-5-yl)-1H-benzo [d]imidazol-2-yl)-N,N-dimeth-ylbenzenesulfonamide] showed an IC50 of 0.15 nM.

The compound `Fc1c(-c2ccnn2C2CC2)cc2[nH]c(-c3ccc(C(F)(F)F)cc3)nc2c1F` [Compound 75, 2-(4-(trifluoromethyl)phenyl)-6-(1-cyclopropyl-1H-pyrazol-5-yl)-4,5-difluoro-1H-benzo [d]imidazole] returned an IC50 of 0.081 nM.

`COc1ccc(-c2nc3cc(-c4ccncc4Cl)c(F)cc3[nH]2)cc1F` [Compound 2, 6-(3-chloropyridin-4-yl)-5-fluoro-2-(3-fluoro-4-meth-oxyphenyl)-1H-benzo[d] imidazole]: the midpoint of inhibition, the IC50, lay at 11 nM.

`Cc1ccncc1-c1cc2[nH]c(-c3ccc(S(=O)(=O)N(C)C)cc3)nc2cc1F` [Compound 55, 4-(6-(4-methylpyridin-3-yl)-5-fluoro-1H-benzo[d]imidazol-2-yl)-N,N-dimethylbenzene-sulfonamide] showed an IC50 of 0.1 nM.

Compound `Cc1cc(F)ncc1-c1cc2nc(-c3ccc(S(N)(=O)=O)cc3)[nH]c2cc1F` [Compound 36, 4-(5-fluoro-6-(6-fluoro-4-methylpyridin-3-yl)-1H-benzo [d]imidazol-2-l)benzenesulfon-amide] gave an IC50 of 0.54 nM.

`Cc1[nH]c(=O)ccc1-c1cc2nc(-c3ccc(S(=O)(=O)N(C)C)cc3)[nH]c2cc1F` [Compound 41, 4-(5-fluoro-6-(2-methyl-6-oxo-1,6-dihydropyridin-3-yl)-1H-benzo[d]imidazol-2-yl)-N,N-dimethylbenzenesulfon-amide] came in with an IC50 of 0.23 nM.

As to `COc1nc(C)ncc1-c1cc2nc(-c3ccc(S(=O)(=O)N(C)C)cc3)[nH]c2cc1F` [Compound 32, 4-(5-fluoro-6-(4-methoxy-2-methylpyrimid-5-yl)-1H-benzo[d]imidazol-2-yl)-N,N-dimethylbenzenesulfonamide], the IC50 came to 0.13 nM.

Take `Cc1cc(N)ncc1-c1cc2[nH]c(-c3ccc(S(=O)(=O)N(C)C)cc3)nc2c(F)c1F` [Compound 45, 4-(6-(6-amino-4-methylpyr-idin-3-yl)-4,5-difluoro-1H-benzo[d]imidazol-2-yl)-N,N-dimethylbenzenesulfonamide]: the IC50 came to 0.033 nM.

In turn, `Cc1nc(N)ncc1-c1cc2[nH]c(-c3ccc(C(F)F)cc3)nc2c(F)c1F` [Compound 44, 5-(2-(4-(difluoromethyl)phen-yl)-4,5-difluoro-1H-benzo[d]imidazol-6-yl)-4-methylpyr-imidine-2-amine] returned an IC50 of 0.096 nM.

`CC(=O)n1nc(C)c(-c2cc3nc(-c4ccc(C(F)(F)F)cc4)[nH]c3cc2F)c1C` [Compound 23, 1-(4-(6-fluoro-2-(4-(trifluoro-methyl)phenyl)-1H-benzo[d]imidazol-5-yl)-3,5-dimethyl-1H-pyrazol-1-yl)ethan-1-one] had an IC50 of 0.29 nM.

In turn, `COc1cc(C)c(-c2cc3nc(-c4ccc(S(=O)(=O)N(C)C)cc4)[nH]c3cc2F)cn1` [Compound 39, 4-(5-fluoro-6-(6-methoxy-4-methylpyridin-3-yl)-1H-benzo [d]imidazol-2-yl)-N,N-dimeth-ylbenzenesulfonamide] returned an IC50 of 0.088 nM.

With `Cc1ncc(-c2cc3nc(-c4ccc(S(=O)(=O)N(C)C)cc4)[nH]c3c(F)c2F)c(Cl)n1` [Compound 28, 4-(6-(4-chloro-2-methylpyr-imid-5-yl)-4,5-difluoro-1H-benzo[d]imidazol-2-yl)-N,N-dimethylbenzenesulfonamide], the midpoint of inhibition, the IC50, lay at 0.046 nM.

The compound `Nc1ncc(-c2cc3[nH]c(-c4ccc(C(F)F)cc4)nc3c(F)c2F)c(C(F)F)n1` [Compound 46, 4-(difluoromethyl)-5-(2-(4-(difluoromethyl)phenyl)-4,5-difluoro-1H-benzo[d]imid-azol-6-yl)pyrimidine-2-amine] registered an IC50 of 0.042 nM.

Compound `CS(=O)(=O)c1ccc(-c2nc3cc(-c4cnc(N5CCOCC5)nc4)c(F)cc3[nH]2)cc1` [Compound 20, 4-(5-(5-fluoro-2-(4-(methyl-sulfonyl)phenyl)-1H-benzo[d]imidazol-6-yl)pyrimidine-2-yl)morpholine] registered an IC50 of 2.21 nM.

The compound `Nc1ncc(-c2cc3[nH]c(-c4ccc(F)c(C(F)(F)F)c4)nc3c(F)c2F)c(C(F)F)n1` [Compound 81, 5-(2-(3-(trifluoromethyl)-4-fluorophenyl)-4,5-difluoro-1H-benzo[d]imidazol-6-yl)-4-(difluoromethyl)pyrimidine-2-amine] returned an IC50 of 0.15 nM.

`CC(C)c1nc(N)ncc1-c1cc2nc(-c3ccc(S(=O)(=O)N(C)C)cc3)[nH]c2cc1F` [Compound 34, 4-(6-(2-amino-4-isopropyl-pyrimid-5-yl)-5-fluoro-1H-benzo[d]imidazol-2-yl)-N,N-dimethylbenzenesulfonamide] came in with an IC50 of 0.058 nM.

Take `CC(C)n1ccnc1-c1cc2[nH]c(-c3ccc(C(F)(F)F)cc3)nc2c(F)c1F` [Compound 72, 2-(4-(trifluoromethyl)phenyl)-6-(1-isopropyl-1H-imidazol-2-yl)-4,5-difluoro-1H-benzo[d] imidazole]: the midpoint of inhibition, the IC50, lay at 0.77 nM.

Compound `Cc1nc(N)ncc1-c1cc2nc(-c3ccc(S(=O)(=O)N(C)C)cc3)[nH]c2cc1F` [Compound 22, 4-(6-(2-amino-4-methylpyr-imid-5-yl)-5-fluoro-1H-benzo [d]imidazol-2-yl)-N,N-dimeth-yl-benzenesulfonamide] gave a half-inhibitory concentration (IC50) of 0.1 nM.

`CN1CCN(c2ncc(-c3cc4nc(-c5ccc(C(F)(F)F)cc5)[nH]c4cc3F)cn2)CC1` [Compound 17, 5-fluoro-6-(2-(4-methylpiper-azine-1-yl)pyrimid-5-yl)-2-(4-(trifluoromethyl)phenyl)-1H-benzo[d]imidazole]: inhibition was half-maximal at 4.8 nM (IC50).
